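Growth conditions: 96-well plates. Treatment: test compound, 48 hours, 5 concentrations. Analysis: linear interpolation between bracketing concentrations; unreached endpoints set to highest concentration. GI50 = concentration required for 50% inhibition of growth. At the TGI there is no net growth.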
Tests used:
Experiment in all cases: growth of human tumour cells (NCI), 48 h
SF-539 CNS = test system: SF-539 CNS
SW-620 colon = test system: SW-620 colon
HCC-2998 colon = test system: HCC-2998 colon
SN12C renal = test system: SN12C renal
SK-MEL-28 melanoma = test system: SK-MEL-28 melanoma
K-562 leukemia = test system: K-562 leukemia
TK-10 renal = test system: TK-10 renal
HT29 colon = test system: HT29 colon
HS 578T breast = test system: HS 578T breast
MCF7 breast = test system: MCF7 breast

SMILES | TGI (SF-539 CNS) | TGI (SW-620 colon) | TGI (HCC-2998 colon) | TGI (SN12C renal) | TGI (SK-MEL-28 melanoma) | TGI (K-562 leukemia) | TGI (TK-10 renal) [µM] | TGI (HT29 colon) | GI50 (HS 578T breast) | TGI (HS 578T breast) | GI50 (SF-539 CNS) | GI50 (SW-620 colon) | GI50 (HCC-2998 colon) | GI50 (SN12C renal) | GI50 (SK-MEL-28 melanoma) | GI50 (K-562 leukemia) | GI50 (MCF7 breast) | TGI (MCF7 breast) | GI50 (TK-10 renal) [µM] | GI50 (HT29 colon)
CN(C)C(=S)/N=c1\sn(C)/c(=N\C(=S)N(C)C)n1C | > 100 µM | > 100 µM | > 100 µM | > 100 µM | > 100 µM | > 100 µM | > 100 | > 100 µM | – | – | – | – | – | – | – | – | – | – | – | –
CC(C)(/C=C(\C#N)C(=O)N1CCC[C@@H](n2nc(-c3ccc(Oc4ccccc4)cc3F)c3c(N)ncnc32)C1)N1CCN(C2COC2)CC1 | 19 µM | 31.3 µM | 31.5 µM | 16.2 µM | 22 µM | > 100 µM | 15.9 | 23.6 µM | 4.67 µM | 23.8 µM | 5.95 µM | 12.4 µM | 15.4 µM | 4.3 µM | 9.71 µM | 7.49 µM | 2.57 µM | 12.8 µM | 4.12 | 4.69 µM
CCCCCCCCCCCCCCCC(=O)OCCOCCOCCOCc1ccccc1 | > 100 µM | > 100 µM | – | > 100 µM | > 100 µM | – | > 100 | > 100 µM | – | – | – | – | – | – | – | – | – | – | – | –
C#CC1/C(=C\C(=O)OC)CCCC1O (centres undefined) | > 100 µM | > 100 µM | > 100 µM | > 100 µM | – | > 100 µM | > 100 | > 100 µM | – | – | – | – | – | – | – | – | – | – | – | –
COCC(OC)C(CC=C(C#N)C#N)OC (centres undefined) | > 100 µM | > 100 µM | > 100 µM | > 100 µM | > 100 µM | > 100 µM | > 100 | > 100 µM | – | – | – | – | – | – | – | – | – | – | – | –
CC(C)C1=Cc2ccc3c(c2C(=O)C1=O)CCCC3(C)C | 11 µM | 10.2 µM | 32.7 µM | 13.9 µM | 13.1 µM | > 100 µM | 11.2 | 46.2 µM | – | – | – | – | – | – | – | – | – | – | – | –
Nc1ncn([C@@H]2O[C@H](CO)[C@@H](O)[C@H]2O)c(=O)n1 | – | > 100 µM | 5.55 µM | > 100 µM | 11.1 µM | > 100 µM | – | – | – | – | – | 1.71 µM | 0.636 µM | 0.594 µM | 2.68 µM | 0.572 µM | 1.24 µM | 18.2 µM | – | –
O=C1N=C2Sc3ccc4ccccc4c3N2C1=O | 36.6 µM | 49.1 µM | 68.7 µM | 43.8 µM | 56.3 µM | > 100 µM | 81.6 | 96.7 µM | – | – | – | – | – | – | – | – | – | – | – | –
N#CC(C(=O)/C(=N\NC(N)=O)C(C#N)c1ccc(Cl)cc1)c1ccc(Cl)cc1 (centres undefined) | > 100 µM | > 100 µM | – | > 100 µM | > 100 µM | > 100 µM | – | > 100 µM | – | – | – | – | – | – | – | – | – | – | – | –
COC(=O)[C@]12CC[C@@H](C)[C@H](C)[C@@H]1C1=CC[C@@H]3[C@@]4(C)C[C@@H](O)[C@H](O)[C@@](C)(CO)C4=CC[C@@]3(C)[C@]1(C)CC2 | 34.6 µM | 34.1 µM | 34.8 µM | – | 40.9 µM | 36.6 µM | 34.5 | 33.5 µM | 17.9 µM | 36.4 µM | 17.7 µM | 16.9 µM | 17.3 µM | – | 19.2 µM | 17.5 µM | 14.2 µM | 31.2 µM | 19.4 | 15.9 µM
COC1C(OC(=S)Nc2ccccc2)c2ccccc2N1C(C)=O (centres undefined) | > 100 µM | > 100 µM | > 100 µM | > 100 µM | > 100 µM | > 100 µM | – | > 100 µM | – | – | – | – | – | – | – | – | – | – | – | –
COc1ccc(CCN(C)C2CCC(C#N)(c3ccc(OC)c(OC)c3)CC2)cc1OC (centres undefined) | > 100 µM | > 100 µM | > 100 µM | > 100 µM | > 100 µM | > 100 µM | > 100 | > 100 µM | – | – | – | – | – | – | – | – | – | – | – | –
C=CCCCCC1CCC2CCC(CCCCC=C)N12 (centres undefined) | 30.6 µM | 32.9 µM | 30 µM | 29.9 µM | 32.2 µM | 42.1 µM | 34.8 | 25.5 µM | – | – | – | – | – | – | – | – | – | – | – | –
COC(=O)/C(=N\NC(N)=S)C(C(=O)OC)C(=O)C(=O)Nc1ccc(C)cc1 (centres undefined) | > 100 µM | > 100 µM | > 100 µM | > 100 µM | > 100 µM | > 100 µM | > 100 | > 100 µM | – | – | – | – | – | – | – | – | – | – | – | –
CC(C)(C)c1cc(C(P(=O)(O)O)P(=O)(O)O)cc(C(C)(C)C)c1O | > 100 µM | > 100 µM | > 100 µM | – | > 100 µM | > 100 µM | > 100 | > 100 µM | – | – | – | – | – | – | – | – | – | – | – | –
COc1ccc(OCC(=O)O)c2c1CCCC2=O | > 100 µM | > 100 µM | > 100 µM | > 100 µM | > 100 µM | > 100 µM | > 100 | > 100 µM | – | – | – | – | – | – | – | – | – | – | – | –
O=C(OC1CCC(=C2SCCCS2)[C@H]1C1SCCCS1)c1ccccc1 (some centres undefined) | > 100 µM | > 100 µM | > 100 µM | > 100 µM | – | > 100 µM | > 100 | > 100 µM | – | – | – | – | – | – | – | – | – | – | – | –
COc1cc(N(CCC#N)CCC#N)ccc1/C(N=Nc1ccc(Cl)cc1)=N/NC(=O)c1cc(Br)ccc1O | > 150 µg/mL | > 150 µg/mL | 81.8 µg/mL | > 150 µg/mL | > 150 µg/mL | > 150 µg/mL | – | > 150 µg/mL | 125 µg/mL | > 150 µg/mL | 73.3 µg/mL | > 150 µg/mL | 33.8 µg/mL | 88.4 µg/mL | > 150 µg/mL | 86.4 µg/mL | 44.1 µg/mL | > 150 µg/mL | – | 45.5 µg/mL
Cc1ccc2nc(/C(=C/c3ccc(/C=C(\NC(=O)c4ccccc4)c4nc5ccc(C)cc5[nH]4)c(C)c3)NC(=O)c3ccccc3)[nH]c2c1 | 28.9 µM | > 100 µM | – | 30.1 µM | 44.1 µM | 45.4 µM | 88 | > 100 µM | – | – | – | – | – | – | – | – | – | – | – | –
O=[N+]([O-])c1ccc2occ3c2c1CCC3 | > 100 µM | > 100 µM | > 100 µM | > 100 µM | > 100 µM | > 100 µM | > 100 | > 100 µM | – | – | – | – | – | – | – | – | – | – | – | –
COc1c(O)c2c(=O)cc3c4c5c(cc(=O)c6c(O)c(OC)c(CC(C)O)c(c(c1CC(C)O)c24)c65)OCO3 (centres undefined) | 4.31 µM | 8.65 µM | – | 3.18 µM | 4.23 µM | 43.3 µM | 8.12 | 8.58 µM | – | – | – | – | – | – | – | – | – | – | – | –
O=C(/C(=C/c1ccc(Cl)cc1)c1ccccc1)c1ccccc1 | 31.3 µM | 31.6 µM | 31.2 µM | 31.7 µM | 30.6 µM | > 100 µM | 56.8 | 38.4 µM | – | – | – | – | – | – | – | – | – | – | – | –
COC(=O)/C(=C/c1ccc(OC)cc1)C(C(=O)O)=C1CCCC1 | > 100 µM | > 100 µM | > 100 µM | > 100 µM | – | > 100 µM | > 100 | > 100 µM | – | – | – | – | – | – | – | – | – | – | – | –
